According to patent publication US8039585B2, “Therapeutic administration of the scrambled anti-angiogenic peptide C16Y” (The United States of America as represented by the …, priority 2004, dated 2011):
Where two headings read alike, the source gives them in different places.

Key:
[1] = system: MDA-MB 231 cells; test: Tumor cell proliferation assay (Cell Titer 96 Aqueous); assay type: cell-based; settings: 100 μg/ml, 2-72 hours
Method: A proliferation assay was performed to determine whether the tumor inhibition discussed in Example 6 was the result of angiogenesis inhibition or some effect on cell proliferation. Proliferation of MDA-MB 231 cells was quantified using a Cell Titer 96 Aqueous Cell Proliferation assay kit (Promega, Madison, Wis.). Cells were plated on four 96-well dishes at 5×10^3 cells/well and cultured in AIM-V serum-free medium (Life Technologies, Inc., Gaithersburg, Md.). After 1 hour, peptides C16 and C16Y were added at a final concentration of 100 μg/ml. A separate dish was used to quantitate proliferation at 2, 24, 48, and 72 hours by reading absorbance at 490 nm on an Emax plate reader. Each experiment was repeated in triplicate two times.

[2] = system: HUVECs; test: Endothelial cell tube-forming assay on Matrigel; assay type: cell-based, human; design: key to Disruption of tube formation / Activity (tube formation, truncated C16Y peptides): +: tubes slightly affected; ++: tubes moderately affected; +++: tubes disrupted; ++++: tubes completely disrupted; −: tubes resemble control; settings: for Disruption of tube formation: 16 hours
Method: FIG. 3: Disruption of endothelial cell tube formation by C16Y peptide. 48-well plates were coated with 200 μl of Matrigel per well. Each well was treated with RPMI containing 24,000 human umbilical vein endothelial cells (HUVECS) and 100 mg/L endothelial cell growth factor in the presence of 10-75 μg/ml of C16 or scrambled C16 peptide for 16 hours. Control wells contained medium only. Cells were fixed and stained, and tube formation was scored by a blinded observer.
Tube-forming assays were performed as described previously (Ponce 2001). 48-well plates were coated with 200 μl/well of Matrigel (Gho 2001; Kubota 1988), a basement membrane matrix. HUVECs (24,000 cells/well) were plated in RPMI 1640 containing 10% bovine calf serum, defined and supplemented (HyClone Laboratories, Inc., Logan, Utah), along with 100 mg/liter of endothelial cell growth factor (Collaborative Biomedical). C16 or scrambled C16 peptides were added at concentrations ranging from 10-75 μg/ml. Control wells contained medium only. After 16 hours, cells were fixed and stained with Diff-Quick fixative (methanol) and solution II (6.25% (w/v) each of azure A and methylene blue) (Dade A G, Dudingen, Switzerland), and tube formation was scored by a blinded observer. Each peptide was tested at least in triplicate, and the assays were repeated a minimum of three times.
Tube formation assays were repeated using truncated versions of the C16Y peptide to determine the minimal active sequence of the peptide. The carboxyl end of C16Y was not necessary for activity, whereas the amino terminal aspartic acid was required. The minimal active sequence for the C16Y peptide is shown in SEQ ID NO: 2. Each of the peptides containing at least this 8 amino acid sequence (SEQ ID NOs: 1-5) inhibited tube formation.

[3] = system: MDA-MB 231 breast cancer cells; test: Primary tumor growth in nude mice (s.c. MDA-MB 231); assay type: in vivo; settings: 1 mg/day i.p.
Method: FIG. 7: Inhibition of primary tumor growth by C16Y. MDA-MB 231 cancer cells were injected subcutaneously (s.c.) into nude mice and the tumors were allowed to grow until they reached 200-300 mm^3. Mice were then treated daily for 7-10 days with C16 (1 mg/day) or C16Y peptides (0.2, 0.5, or 1 mg/day) by intraperitoneal (i.p.) injection. Control mice were injected with water only. Tumor size was measured at 0, 3, 6, and 9 days after peptide injections began. A. Mice were treated with 1 mg/day of either C16 or C16Y peptide for 10 days. […] B. Mice were treated with C16Y peptide at varying concentrations for 7 days. C16Y decreased tumor size at all concentrations tested during the 7 days it was administered. Tumor growth resumed when administration of the C16Y peptide was halted, with tumor size increasing more rapidly in mice treated with lower dosages of C16Y. Bars represent ±SD.
MDA-MB 231 breast cancer cells (5×10^5 cells) mixed with Matrigel (1:4) were injected subcutaneously (s.c.) into nude mice. […] Tumor growth was monitored with a caliper, with measurements being taken on days 0, 3, 6, and 9 after the first peptide injection. Tumor volume was determined using the formula width^2×length×0.52. […] Vessel number was determined by staining sections with a CD-31 antibody (Nomizu 2001) and counting 6 fields per section per mouse (n=2 section/mouse; total 3 mice).

[4] = system: MDA-MB 231 breast tumor cells; assay type: in vivo, chick; settings: for Average tumor weight: 7 day incubation
Method: FIG. 6: Inhibition of CAM tumor growth by C16Y. MDA-MB 231 breast tumor cells were mixed with C16 or C16Y peptides (at either 50 or 100 μg/ml), then mixed with 1:1 with neutralized collagen I solution. The collagen I gel was overlayed with the CAM of a 7-day-old embryo for 7 days, after which the membrane was fixed and tumor cells were removed and weighed. In the absence of either peptide, average tumor weight was 5.40±0.59 mg. […] C16Y peptide inhibited tumor growth by approximately 40% at both concentrations tested. Bars represent ±SD.
The effect of C16Y on tumor growth in vivo was analyzed using the CAM assay (Gho 2001). MDA-MB 231 breast tumor cells (a gift of Dan Welch, Pennsylvania State University, University Park, Pa.) (1×10^6 cells/0.1 ml) in RPMI 1640 were mixed with 0, 50, or 100 μg/ml of C16 or C16Y, and then mixed 1:1 with a neutralized collagen I solution (4.6 mg/ml collagen type 1). This collagen I gel was overlayed with the CAM of a 7-day-old embryo. After a 7 day incubation, the membrane was fixed and tumor cells were removed and weighed. This experiment was repeated twice, with each data point tested in at least six replicates.

[5] = system: C16-induced angiogenesis in the chick CAM; test: CAM assay, C16-induced angiogenesis; assay type: in vivo; settings: peptide alone (C16: 0.5 μg)
Method: FIG. 4: Inhibition of C16-induced angiogenesis by C16Y. 0.5 μg of angiogenic stimulator (C16 peptide) and varying concentrations of either C16S or C16Y peptides were applied to 10-day-old embryonated eggs in 5 μl of water. After 3 days, microphotographs were taken of the eggs to determine angiogenesis levels. Negative control eggs were treated with water only (panel a), while positive control eggs were treated with bFGF only (not shown). As expected, C16 peptide administered alone stimulated angiogenesis (panel d). […] When the amount of inhibitor peptide was lowered to 0.05 μg, C16Y peptide continued to inhibit angiogenesis (panel f), while C16S peptide had no effect (panel c).
The CAM assay was performed using 10-day-old embryonated eggs (CBT, Charlestown, Md.) as described previously (Gho 1999). On embryonal day 3, approximately 4 ml of ovalbumin was removed from each egg. After opening windows on embryonal day 10, the angiogenic stimulus (C16) and test competitor peptides in 5 μl of distilled water were applied to the CAM after drying on 13-mm diameter quartered plastic coverslips (Thermanox; Nalge, NUNC International, Naperville, Ill.). Three days later, the eggs were scored for a positive response and photographed. The positive control was bFGF, and the negative control was the vehicle water. Experiments were repeated twice using a minimum of 11 eggs for each data point.

## KAFDITYVRLKF [Peptide C16, angiogenic peptide from the γ1 chain of laminin-1]
[1]
  Effect on MDA-MB 231 cell proliferation: Neither C16 nor C16Y altered MDA-MB 231 cell proliferation
[2]; 10-75 μg/ml tested
  Dose at which tube formation is disrupted (lowest active): 50 µg/mL
[2]; peptide concentration 10 μg/ml
  Disruption of tube formation: −
[2]; peptide concentration 25 μg/ml
  Disruption of tube formation: −
[2]; peptide concentration 50 μg/ml
  Disruption of tube formation: +
[2]; peptide concentration 75 μg/ml
  Disruption of tube formation: +++
[3]; 7 days, stated jointly with control mice
  Tumor size relative to original size: 1.7-2.5 times their original size
[3]; after 7 days
  Tumor growth: did not significantly affect tumor growth
[4]; 50 μg/ml peptide
  Average tumor weight: 5.45 ± 0.84 mg
[4]; 100 μg/ml peptide
  Average tumor weight: 5.85 ± 0.54 mg
[4]; P≦0.027
  Vessels observed in tumors: 9.6±0.23
[5]
  Angiogenesis with peptide administered alone: capable of inducing angiogenesis
